Measurements as given in patent publication US6342503B1, “1N-alkyl-n-arylpyrimidinamines and derivatives thereof” (DuPont Pharmaceuticals Company, priority 1993, dated 2002).

Tests used:
CRF receptor = biological target: T1, CRF receptor (Rattus norvegicus, UniProt P35353); assay: In vitro CRF receptor binding assay (competition with [125I] ovine CRF, rat cortex membranes); settings: read-out: Inhibition Ki
T1 construct: 100 μl of membrane suspension as prepared above to give a total reaction volume of 300 μl; from tissue; host or cells: rat cerebral cortex membrane homogenate
T1 sequence (P35353 24-415): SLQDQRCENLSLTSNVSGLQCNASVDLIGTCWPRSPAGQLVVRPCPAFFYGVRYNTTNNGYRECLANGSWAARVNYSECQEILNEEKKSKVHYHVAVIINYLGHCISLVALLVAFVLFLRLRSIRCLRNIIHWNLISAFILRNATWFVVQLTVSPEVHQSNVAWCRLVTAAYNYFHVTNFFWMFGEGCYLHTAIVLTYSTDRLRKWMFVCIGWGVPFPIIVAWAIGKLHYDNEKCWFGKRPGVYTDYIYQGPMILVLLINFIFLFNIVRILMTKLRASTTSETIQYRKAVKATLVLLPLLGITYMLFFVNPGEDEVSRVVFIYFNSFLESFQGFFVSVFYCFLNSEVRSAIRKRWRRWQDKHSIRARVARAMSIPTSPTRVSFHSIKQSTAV

| Ki (CRF receptor) | melting point | Compound |
| --- | --- | --- |
| < 500 nM | 194 to 195 °C | Cc1cc(N2CCSCC2)nc(Nc2c(Br)cc(C(C)C)cc2Br)n1 [compound 166, N-(2,6-dibromo-4-(1-methylethyl)phenyl)4-thiomorpholino-6-methyl-2-pyrimidinamine] |
| 501 to 2000 nM | 165 to 167 °C | CCOc1cc(Br)c(Nc2nc(C)cc(C)n2)c(Br)c1 [compound 228] |
| < 500 nM | 125 to 126 °C | CCN(c1nc(C)cc(C)n1)c1ccc(C(C)=O)cc1SC [compound 187, N-(4-acetyl-2-methylthiophenyl)-N-ethyl-4,6-dimethyl-2-pyrimidinamine] |
| < 500 nM | 150 to 151 °C | CCCN(c1nc(C)cc(C)n1)c1ccc(C(C)C)cc1Br [compound 196] |
| 2000 to 10000 nM | 158 to 160 °C | CCN(c1nc(C)cc(C)n1)c1ccc(N(C)C(C)=O)cc1SC [compound 183, N-(2-methylthio-4-(N-acetyl-N-methylamino)phenyl)-N-ethyl-4,6-dimethyl-2-pyrimidinamine] |
| < 500 nM | 136 to 138 °C | CCN(c1nc(C)cc(C(=O)c2ccco2)n1)c1ccc(C(C)C)cc1Br [compound 288] |
| 501 to 2000 nM | 179.2 °C | Cc1cc(Cl)c2c(C#N)cn(-c3ccc(C(C)C)cc3Br)c2n1 [Example 255] |
| < 500 nM | 91 to 93 °C | CCN(c1nc(C)cc(C)n1)c1ccc(Br)cc1SC [compound 180, N-(4-bromo-2-methylthiophenyl)-N-ethyl-4,6-dimethyl-2-pyrimidinamine] |
| < 500 nM | 49 to 50 °C | CCCCc1ccc(N(CCC)c2nc(C)cc(C)n2)c(Br)c1 [compound 20] |
| < 500 nM | 123.8 °C | Cc1cc(Cl)nc2c1c(C#N)cn2-c1ccc(C(C)C)cc1Br [Example 262] |
| < 500 nM | 64 to 66 °C | CCN(c1nc(C)cc(C)n1)c1ccc(C(C)C)cc1SC [compound 168, N-(2-methylthio-4-(1-methylethyl)phenyl)-N-ethyl-4,6-dimethyl-2-pyrimidinamine] |
| < 500 nM | 211 to 212 °C | CCc1cc(N2CCCCC2)nc(N(C)c2ccc(C(C)C)cc2Br)n1 [compound 194] |
| < 500 nM | 96 to 98 °C | CCN(c1nc(C)cc(N2CCOCC2)n1)c1ccc(C(C)C)cc1I [compound 30, N-Ethyl-N-(2-iodo4-(1-methylethyl)phenyl)4-morpholinyl-6-methyl-2-pyrimidinamine] |
| < 500 nM | 90 to 95 °C | CCN(c1nc(C)nc(N2CCOCC2)n1)c1c(Br)cc(OC)cc1OC [compound 237] |
| < 500 nM | 141 to 142 °C | CCN(c1nc(C)cc(C)n1)c1ccc(NC)cc1SC [compound 190, N-(4-(N-methylamino)-2-methylthiophenyl)-N-ethyl-4,6-dimethyl-2-pyrimidinamine] |
| < 500 nM | 88 to 90 °C | C=CCN(c1nc(C)cc(C)n1)c1c(Br)cc(OC)cc1OC [compound 205] |
| 501 to 2000 nM | 40 to 42 °C | Cc1ccc(N(C)c2nc(C)cc(N3CCOCC3)n2)c(Br)c1 [compound 6] |
| 2000 to 10000 nM | 87 to 88 °C | CCN(c1nc(C)cc(C(=O)NCc2ccco2)n1)c1ccc(C(C)C)cc1Br [compound 270] |
| 501 to 2000 nM | 159 to 160 °C | CCCCN(c1nc(C)cc(C)n1)c1ccc(C(C)C)cc1Br [compound 197] |

| Ki (CRF receptor) | melting point | Compound |
| --- | --- | --- |
| < 500 nM | 128 to 130 °C | CCN(c1nc(C)cc(C)n1)c1ccc(OC)cc1SC [compound 185, N-(4-methoxy-2-methylthiophenyl)-N-ethyl-4,6-dimethyl-2-pyrimidinamine] |
| < 500 nM | 119 to 120 °C | Cc1cc(N2CCCC2)nc(N(C)c2ccc(C(C)C)cc2Br)n1 [compound 193] |
| < 500 nM | 50 to 52 °C | CCN(c1nc(C)nc(C(C#N)c2ccccc2)n1)c1c(Br)cc(OC)cc1OC (stereo not shown) [compound 247] |
| < 500 nM | 80 to 82 °C | CCN(c1nc(C)cc(C(=O)N(C)C)n1)c1ccc(C(C)C)cc1Br [compound 282] |
| 2000 to 10000 nM | 170 to 173 °C | COc1cc(Cl)c(Nc2nc(C)cc(C)n2)c(OC)c1 [compound 145] |
| < 500 nM | 174 to 176 °C | CCN(c1nc(C)cc(C)n1)c1ccc(C(C)C)cc1S(C)(=O)=O [compound 174, N-(2-methylsulfonyl-4-(1-methylethyl)phenyl)-N-ethyl-4,6-dimethyl-2-pyrimidinamine] |
| < 500 nM | 70 to 72 °C | CCN(c1nc(C)nc(N2CCSC2)n1)c1ccc(C(C)C)cc1Br [compound 241] |
| < 500 nM | 171 to 173 °C | CCN(c1nc(C)cc(C(=O)c2cc[nH]n2)n1)c1ccc(C(C)C)cc1Br [compound 286] |
| 501 to 2000 nM | 177 to 179 °C | COc1cc(Br)c(Nc2nc(C)cc(C)n2)c(OC)c1 [compound 203] |
| < 500 nM | 85 to 87 °C | CCc1ccc(N(c2nc(C)cc(C)n2)C(C)C)c(SC)c1 [compound 181, N-(4-ethyl-2-methylthiophenyl)-N-(1-methylethyl)4,6-dimethyl-2-pyrimidinamine] |
| < 500 nM | 52 to 55 °C | CCN(c1nc(C)cc(N2CC[S+]([O-])CC2)n1)c1ccc(C(C)C)cc1I [compound 56, N-ethyl-N-(2-iodo4-(1-methylethyl)phenyl)4-thiomorpholino-6-methyl-2-pyrimidinamine, S-oxide] |
| < 500 nM | 139 to 141 °C | CCC(=O)c1ccc(N(CC)c2nc(C)cc(C)n2)c(SC)c1 [compound 188, N-(4-propionyl-2-methylthiophenyl)-N-ethyl-4,6-dimethyl-2-pyrimidinamine] |
| < 500 nM | 157 to 160 °C | CCN(c1nc(C)cc(C)n1)c1c(O)cc(OC)cc1Br [compound 230, N-(2-Bromo-6-hydroxy-4-methoxyphenyl)-N-ethyl-4,6-dimethyl-2-pyrimidinamine] |
| < 500 nM | 119 to 120 °C | CCN(c1nc(C)cc(C)n1)c1ccc(N(C)C)cc1SC [compound 191, N-(4-(N,N-dimethylamino)-2-methylthiophenyl)-N-ethyl-4,6-dimethyl-2-pyrimidinamine] |
| < 500 nM | 105.8 °C | Cc1cc(C)c2c(C#N)cn(-c3ccc(C(C)C)cc3Br)c2n1 [Example 254] |
| < 500 nM | 101 to 103 °C | CCN(c1nc(C)cc(C)n1)c1c(Br)cc(OC)cc1Br [compound 226] |
| 2000 to 10000 nM | 140 to 142 °C | CCN(c1nc(C)nc(Oc2ccccc2)n1)c1ccc(C(C)C)cc1Br [compound 243] |
| < 500 nM | 120 to 121 °C | CCN(c1nc(C)cc(C)n1)c1ccc(OC)cc1OC [compound 7] |
| 501 to 2000 nM | 99 to 100 °C | CCOC(=O)c1ccc(N(CC)c2nc(C)cc(C)n2)c(SC)c1 [compound 184, N-(4-carboethoxy-2-methylthiophenyl)-N-ethyl-4,6-dimethyl-2-pyrimidinamine] |
